Source: ChEMBL document CHEMBL3046121, “Design and synthesis of new N-substituted amino methyl-[1,2,3] triazolyl moieties of fluoroquinolones as antibacterial agents” (2013)
Values after ≈ are worked out from the molar mass of the structure shown.

Assays:
Type in all cases: functional
Moraxella catarrhalis = assay: Antibacterial activity against Moraxella catarrhalis ATCC 25238 assessed as growth inhibition after 24 hr by two-fold serial dilution method; settings: ATCC 25238, 24 h
Acinetobacter baumannii = assay: Antibacterial activity against Acinetobacter baumannii BAA 747 assessed as growth inhibition after 24 hr by two-fold serial dilution method; settings: BAA 747, 24 h
Klebsiella pneumoniae = assay: Antibacterial activity against clinical Klebsiella pneumoniae AB 356 assessed as growth inhibition after 24 hr by two-fold serial dilution method; settings: AB 356, 24 h
Enterococcus faecalis = assay: Antibacterial activity against Vancomycin-resistant Enterococcus faecalis ATCC 700802 assessed as growth inhibition after 24 hr by two-fold serial dilution method; settings: ATCC 700802, 24 h
Staphylococcus aureus [1] = assay: Antibacterial activity against Methicillin-resistant Staphylococcus aureus ATCC 33591 assessed as growth inhibition after 24 hr by two-fold serial dilution method; settings: ATCC 33591, 24 h
Staphylococcus aureus [2] = assay: Antibacterial activity against methicillin-sensitive Staphylococcus aureus ATCC 29213 assessed as growth inhibition after 24 hr by two-fold serial dilution method; settings: ATCC 29213, 24 h

| Compound | MIC (Moraxella catarrhalis) [µg/mL] | MIC (Acinetobacter baumannii) [µg/mL] | MIC (Klebsiella pneumoniae) [µg/mL] | MIC (Enterococcus faecalis) [µg/mL] | MIC (Staphylococcus aureus [1]) [µg/mL] | MIC (Staphylococcus aureus [2]) [µg/mL] |
| --- | --- | --- | --- | --- | --- | --- |
| O=C(O)c1cn(C2CC2)c2cc(-n3cc(CNC4CCCCCC4)nn3)c(F)cc2c1=O | 8 (≈ 18.2 µM) | 16 (≈ 36.4 µM) | 16 (≈ 36.4 µM) | 32 (≈ 72.8 µM) | 32 (≈ 72.8 µM) | 32 (≈ 72.8 µM) |
| O=C(O)c1cn(C2CC2)c2cc(-n3cc(CNc4ccccc4)nn3)c(F)cc2c1=O | 0.125 (≈ 0.298 µM) | 1 (≈ 2.38 µM) | 1 (≈ 2.38 µM) | 2 (≈ 4.77 µM) | 0.5 (≈ 1.19 µM) | 0.25 (≈ 0.596 µM) |
| O=C(O)c1cn(C2CC2)c2cc(-n3cc(CNc4ccc(F)cc4)nn3)c(F)cc2c1=O | 0.25 (≈ 0.572 µM) | 2 (≈ 4.57 µM) | 2 (≈ 4.57 µM) | 4 (≈ 9.14 µM) | 1 (≈ 2.29 µM) | 0.25 (≈ 0.572 µM) |
| O=C(O)c1cn(C2CC2)c2cc(-n3cc(CNc4ccc(Cl)cc4)nn3)c(F)cc2c1=O | 0.125 (≈ 0.275 µM) | 0.5 (≈ 1.1 µM) | 1 (≈ 2.2 µM) | 1 (≈ 2.2 µM) | 0.25 (≈ 0.551 µM) | 0.25 (≈ 0.551 µM) |
| COc1ccc(NCc2cn(-c3cc4c(cc3F)c(=O)c(C(=O)O)cn4C3CC3)nn2)cc1 | 0.5 (≈ 1.11 µM) | 8 (≈ 17.8 µM) | 4 (≈ 8.9 µM) | 2 (≈ 4.45 µM) | 0.5 (≈ 1.11 µM) | 0.5 (≈ 1.11 µM) |
| Cc1ccc(NCc2cn(-c3cc4c(cc3F)c(=O)c(C(=O)O)cn4C3CC3)nn2)cc1 | 0.125 (≈ 0.288 µM) | 8 (≈ 18.5 µM) | 4 (≈ 9.23 µM) | 2 (≈ 4.61 µM) | 0.5 (≈ 1.15 µM) | 0.5 (≈ 1.15 µM) |
| O=C(O)c1cn(C2CC2)c2cc(-n3cc(CNCc4ccccc4)nn3)c(F)cc2c1=O | 1 (≈ 2.31 µM) | 8 (≈ 18.5 µM) | 1 (≈ 2.31 µM) | 4 (≈ 9.23 µM) | 2 (≈ 4.61 µM) | 2 (≈ 4.61 µM) |
| O=C(O)c1cn(C2CC2)c2cc(-n3cc(CNCc4ccc(F)cc4)nn3)c(F)cc2c1=O | 1 (≈ 2.22 µM) | 8 (≈ 17.7 µM) | 2 (≈ 4.43 µM) | 4 (≈ 8.86 µM) | 2 (≈ 4.43 µM) | 2 (≈ 4.43 µM) |
| O=C(O)c1cn(C2CC2)c2cc(-n3cc(Cn4ccnc4)nn3)c(F)cc2c1=O | 8 (≈ 20.3 µM) | 32 (≈ 81.1 µM) | 32 (≈ 81.1 µM) | 32 (≈ 81.1 µM) | 32 (≈ 81.1 µM) | 32 (≈ 81.1 µM) |
| CN(C)Cc1cn(-c2cc3c(cc2F)c(=O)c(C(=O)O)cn3C2CC2)nn1 | 1 (≈ 2.69 µM) | 8 (≈ 21.5 µM) | 2 (≈ 5.39 µM) | 16 (≈ 43.1 µM) | 8 (≈ 21.5 µM) | 4 (≈ 10.8 µM) |
| CCN(CC)Cc1cn(-c2cc3c(cc2F)c(=O)c(C(=O)O)cn3C2CC2)nn1 | 16 (≈ 40.1 µM) | 16 (≈ 40.1 µM) | 16 (≈ 40.1 µM) | 32 (≈ 80.1 µM) | 32 (≈ 80.1 µM) | 8 (≈ 20 µM) |
| CCCN(CCC)Cc1cn(-c2cc3c(cc2F)c(=O)c(C(=O)O)cn3C2CC2)nn1 | 2 (≈ 4.68 µM) | 16 (≈ 37.4 µM) | 8 (≈ 18.7 µM) | 32 (≈ 74.9 µM) | 32 (≈ 74.9 µM) | 8 (≈ 18.7 µM) |
| O=C(O)c1cn(C2CC2)c2cc(-n3cc(CN4CCCC4)nn3)c(F)cc2c1=O | 1 (≈ 2.52 µM) | 8 (≈ 20.1 µM) | 2 (≈ 5.03 µM) | 16 (≈ 40.3 µM) | 8 (≈ 20.1 µM) | 2 (≈ 5.03 µM) |
| O=C(O)c1cn(C2CC2)c2cc(-n3cc(CN4CCCCC4)nn3)c(F)cc2c1=O | 1 (≈ 2.43 µM) | 8 (≈ 19.4 µM) | 2 (≈ 4.86 µM) | 16 (≈ 38.9 µM) | 16 (≈ 38.9 µM) | 4 (≈ 9.72 µM) |
| O=C(O)c1cn(C2CC2)c2cc(-n3cc(CN4CCOCC4)nn3)c(F)cc2c1=O | 4 (≈ 9.68 µM) | 16 (≈ 38.7 µM) | 16 (≈ 38.7 µM) | 16 (≈ 38.7 µM) | 16 (≈ 38.7 µM) | 8 (≈ 19.4 µM) |
| O=C(O)c1cn(C2CC2)c2cc(-n3cc(CN4CCNCC4)nn3)c(F)cc2c1=O | 8 (≈ 19.4 µM) | 32 (≈ 77.6 µM) | 8 (≈ 19.4 µM) | 32 (≈ 77.6 µM) | 16 (≈ 38.8 µM) | 16 (≈ 38.8 µM) |
| CC(C)NCc1cn(-c2cc3c(cc2F)c(=O)c(C(=O)O)cn3C2CC2)nn1 | 1 (≈ 2.59 µM) | 16 (≈ 41.5 µM) | 4 (≈ 10.4 µM) | 16 (≈ 41.5 µM) | 16 (≈ 41.5 µM) | 16 (≈ 41.5 µM) |
| O=C(O)c1cn(C2CC2)c2cc(-n3cc(CNC4CC4)nn3)c(F)cc2c1=O | 32 (≈ 83.5 µM) | 32 (≈ 83.5 µM) | 32 (≈ 83.5 µM) | 16 (≈ 41.7 µM) | 16 (≈ 41.7 µM) | 16 (≈ 41.7 µM) |
| O=C(O)c1cn(C2CC2)c2cc(-n3cc(CNC4CCCC4)nn3)c(F)cc2c1=O | 1 (≈ 2.43 µM) | 16 (≈ 38.9 µM) | 4 (≈ 9.72 µM) | 16 (≈ 38.9 µM) | 16 (≈ 38.9 µM) | 16 (≈ 38.9 µM) |
| O=C(O)c1cn(C2CC2)c2cc(-n3cc(CNC4CCCCC4)nn3)c(F)cc2c1=O | 1 (≈ 2.35 µM) | 8 (≈ 18.8 µM) | 2 (≈ 4.7 µM) | 32 (≈ 75.2 µM) | 32 (≈ 75.2 µM) | 16 (≈ 37.6 µM) |
| O=C(O)c1cn(C2CC2)c2cc(N3CCNCC3)c(F)cc2c1=O [CIPROFLOXACIN] | 0.25 (≈ 0.754 µM) | 0.5 (≈ 1.51 µM) | – | 0.5 (≈ 1.51 µM) | 0.5 (≈ 1.51 µM) | 0.5 (≈ 1.51 µM) |
| CC(=O)NC[C@H]1CN(c2ccc(N3CCOCC3)c(F)c2)C(=O)O1 [LINEZOLID] | 4 (≈ 11.9 µM) | > 32 | > 32 | – | – | – |
